# Legend:
# [1] = Liver S9 enzyme assay of conversion to BVU; assay type: in vitro ADME
# Method: Human and murine S9 liver fractions are purchased from Thermo Fisher Scientific (HMS9L and MSMCPL, respectively). Enzyme assays are performed for the deglycosylation of arabinosyluracil derivatives. In brief, assays are performed at 37° C. Reaction volumes are 150 μL with liver S9 fractions at 5 μg/μL and BRV or SRV at 100 μM in 10 mM phosphate buffer (pH 7.4). Reactions are initiated by addition of drugs to pre-warmed reaction mixture. 10 μL samples are collected and quenched in 10 μL acetonitrile on ice at 0, 5, 10, 15, 20, 30, 45, 60, 90, 120, 180, 270, and 360 min after initiation. Substrates and reaction product are extracted and quantified by LC-MS as described below.
# [2] = tested on: human gut microbial communities; experiment: Bacterial conversion assay with fecal microbial communities; assay type: in vitro ADME; conditions: human unfractionated fecal microbial communities
# Method: (§1) All handling of human materials is conducted with the permission of the Yale Human Investigation Committee. Samples are collected and stored as described in A. L. Goodman et al., Extensive personal human gut microbiota culture collections characterized and manipulated in gnotobiotic mice, Proceedings of the National Academy of Sciences,108, 6252-6257 (2011), the content of which is incorporated by reference herein. In brief, a single fecal sample is collected from each healthy human donor, stored on ice for less than 12 hours prior to transport into an anaerobic chamber (Coy Laboratory Products) and homogenization in pre-reduced GMM containing 20% glycerol. Aliquots of 0.5 mL volume are anaerobically prepared in 1.8 mL glass E-Z vials (Wheaton Industries) and stored at −80° C. Murine fecal samples are collected from individually caged animals (2 males and 2 females) and are stored at −80° C. without further processing.
# (§2) Frozen stocks are re-suspended in 4 mL pre-reduced GMM and incubated anaerobically at 37° C. for 14 h. Cultures are diluted (1:10) in 20% pre-reduced GMM containing BRV or SRV at 100 μM and further incubated at 25° C. anaerobically. […] Substrates and reaction product are extracted and quantified by LC-MS as described below.
# [3] = tested on: murine gut microbial communities; experiment: as above; assay type: in vitro ADME; conditions: murine unfractionated fecal microbial communities
# Method: as §1, §2
# [4] = tested on: Bacteroides thetaiotaomicron; experiment: BRV conversion assay with gut isolates; assay type: in vitro ADME; conditions: among ten bacterial species
# Method: Frozen stocks of bacteria (Table 4) are plated on BHI blood agar and incubated at 37° C. under anaerobic conditions. Single colonies are inoculated into 4 mL pre-reduced GMM and incubated anaerobically at 37° C. for 24 h (Akkermansia muciniphila for 48 hours). BRV conversion assays are performed with the resulting dense cultures, as described above for bacterial communities.
# [5] = Oral BRV in conventional (CV) and germfree (GF) mice, drug and metabolite levels; assay type: in vivo, C57BL/6 mice
# Method: Oral BRV was administered to conventional (CV) and germfree (GF) C57BL/6 mice, and BRV and BVU concentrations were measured over time along the length of the gastrointestinal tract as shown in FIG. 4C. Serum kinetics of BRV and BVU in conventional (CV) and germ-free (GF) mice were compared following oral BRV administration.
# All experiments using mice are performed using protocols approved by the Yale University Institutional Animal Care and Use Committee. Germfree (GF) 8 to 12 week old C57BL/6J mice are maintained in flexible plastic gnotobiotic isolators with a 12-hour light/dark cycle and GF status monitored by PCR and culture-based methods. Conventional C57BL/6J mice (Jackson Laboratories) are purchased at the age of 6-7 weeks and kept in the lab for 2-3 weeks before experiments. All mice are provided a standard, autoclaved mouse chow (5013 LabDiet, Purina) ad libitum.
# Each drug treatment is performed using 20 treated and 5 to 6 untreated animals. Both genders are equally represented in each group and evenly distributed across the different time points for sample collection. Animals (n=5 per time point and group) are given 100 mg/kg body weight of BRV or SRV as suspensions in PBS (200 μL PBS for controls) by oral gavage. One blood sample is collected from each animal at an early time point (0.5, 1, 1.5, or 2 hours after drug administration) by submandibular bleeding. At 3, 5, 7, and 9 h, mice are sacrificed and tissue samples are collected into sample tubes and snap-frozen. Fecal samples are collected before euthanization and re-suspended in PBS (1 mL) through vigorous shaking. 20 μL are then plated on BHI blood plates and incubated aerobically and anaerobically at 37° C. to check GF, GN^WT, and GN^MUT animals for contamination. Monocolonized mice are also checked for contamination by PCR using primers 7 and 8.
# 200 μL of 0.1 mm zirconia/silica beads (BioSpec Products) and 500 μL of organic solvent (acetonitrile:methanol, 1:1) supplemented with internal standard are added to 50-350 mg of pre-weighed solid material. Material is homogenized by mechanical disruption with a bead beater (BioSpec Products) set for 2 minutes on high setting at room temperature. After incubation for at least 1 h at −20° C., samples are centrifuged (3220 rcf, −9° C.) for 15 min. 10 μL of supernatant are diluted with 10 μL H2O for analysis by LC-MS.
# Samples for LS-MS analysis are prepared as described above. Chromatographic separation is performed on a C18 Kinetex Evo column (Phenomenex, 100 mm×2.1 mm, […]) using mobile phase A: H2O, 0.1% formic acid and B: methanol, 0.1% formic acid at 45° C. 5 μL of sample are injected at 100% A and 0.4 mL/min flow followed by a linear gradient to 95% B over 5.5 min and 0.4 mL/min flow leading to thymine, BVU, SRV, and BRV elution at 0.95, 2.0, 2.15, and 2.4 min, respectively. The internal standards caffeine and sulfamethoxazole elute at 1.9 and 2.1 min, respectively. The qTOF is operated in positive scanning mode (50-1000 m/z) and the following source parameters: VCap is 3500 V; nozzle voltage is 2000 V; gas temp is 225 C; drying gas 13 L/min; nebulizer is 20 psig; sheath gas temp is 225 C; and sheath gas flow is 12 L/min. Online mass calibration is performed using a second ionization source and a constant flow (5 μL/min) of reference solution (121.0509 and 922.0098 m/z). Compounds are identified based on the retention time of chemical standards and their accurate mass (tolerance 20 ppm).
# [6] = model parameter; Clinical Virology 3rd edition, 2009; cited from earlier work
smiles,measurement,setting,value
"O=c1[nH]c(=O)n([C@H]2C[C@H](O)[C@@H](CO)O2)cc1/C=C/Br [BRV, Brivudine]",conversion of BRV to BVU,[1]; human S9 liver fractions,stoichiometric conversion to BVU
same,conversion of BRV to BVU,[1]; murine S9 liver fractions,stoichiometric conversion to BVU
same,conversion of BRV to BVU,[2],stoichiometric conversion to BVU
same,conversion of BRV to BVU,[3],stoichiometric conversion to BVU
same,capacity to convert BRV to BVU,[4],highest metabolic activity
same,endogenous DPD substrates (thymine) in the liver,[5]; BRV-treated CV mice,accumulate endogenous DPD substrates
same,drug concentrations along the length of the gastrointestinal tract,"[5]; CV mice, oral BRV",progressively reduced
same,BRV levels over time in the duodenum,"[5]; CV versus GF mice, oral BRV",similar
same,serum BRV,"[5]; CV versus GF mice, oral BRV",without a corresponding decrease
same,BRV levels further along the gastrointestinal tract and in feces,"[5]; GF mice versus CV, oral BRV",significantly higher
same,"F, bioavailability of the drug",[6],0.3 fraction

# — US20210183467A1, “SYSTEM AND METHOD FOR USING MICROBIOME TO DE-RISK DRUG DEVELOPMENT” (YALE UNIVERSITY, priority 2018, published 2021)
